Source: patent US4474761A, “Oligopeptides with specific inhibiting properties of collagen induced aggregation, process for preparing the same and pharmaceutical compositions containing them” (Choay S.A., priority 1980, dated 1984)
Where no end group is shown, it is not given here. [ ]: non-standard residue; d: D form. Hyp = O=C(O)[C@@H]1C[C@@H](O)CN1

System: platelet membranes
Assay: Linkage of tritiated nonapeptide to platelet membranes (filtration)
Format: binding
Conditions: for Linkage (%) after dissociation time: Table IX
Procedure: The study of the nature of the interaction between type III collagen and platelets is carried out in the presence of tritiated (labelled) nonapeptide of formula: […]
The complete platelets or the platelet membranes solubilized in triton (0.15%) are incubated in a physiological buffer of the type described above in the serotonin release test (in a total volume of 0.2 ml) at a temperature of 37° C. for 15 minutes. The incubation is carried out in presence of tritiated nonapeptide the specific activity of which is of […].
The nonapeptide fixed or linked to the platelet or to the membranes is separated from the free nonapeptide by filtration of the incubation medium through multiporous membranes having porosities of 0.8μ and 0.45μ respectively. The radio activity is directly determined on the filters and the percentage of linkages determined according to the following formula: [formula]
(c) Table VIII relates to the linkage specificity. It represents the linkage percentages between the platelet membranes and different peptides of the invention in the presence of various aggregation inducers (15 ng of peptide, 30 μg of platelet membrane).
The specificity of the linkage is assessed by the total displacement of the corresponding radio-activity by an excess of non labelled peptide of the invention. This excess corresponds to an amount of 100 to 1000 times more than the amount of non labelled peptide which is necessary to induce adhesion of the platelets.
Said reversibility has been studied in the presence of two concentrations of labelled (nona)peptide which are respectively of 3 and 6 ng, for 30 μg of platelet membranes. After the binding of the labelled nonapeptide to the membranes, the incubation media are diluted to the 80 volumes:
in the absence of non labelled (nona)peptide;
and in the presence of an excess of non labelled (nona)peptide (as indicated under c) for the reversibility test).
The percentage of linkage is then determined as a function of an incubation duration ranging from 0 to 15 minutes.
The reversibility is measured by the dissociation factor and the dissociation time.

## Nc1ncnc2c1ncn2[C@@H]1O[C@H](COP(=O)(O)OP(=O)(O)O)[C@@H](O)[C@H]1O [ADP, reference compound]
Table VIII, Nonapeptide H^3 15 ng, platelet membranes 30 μg, agent 10^-2 M
  Linkage % of Nonapeptide H^3 in presence of agent: 4.3%

## CNCC(O)c1ccc(O)c(O)c1 (stereo not shown) [Adrenaline, reference compound]
Table VIII, Nonapeptide H^3 15 ng, platelet membranes 30 μg, agent 100 μg
  Linkage % of Nonapeptide H^3 in presence of agent: 5.4%

## CCCCC/C=C\C/C=C\C/C=C\C/C=C\CCCC(=O)O [Arachidonic acid, reference compound]
Table VIII, Nonapeptide H^3 15 ng, platelet membranes 30 μg, agent 6 nM
  Linkage % of Nonapeptide H^3 in presence of agent: 4.1%

## GK[Hyp]GE[Hyp]GPK [Nonapeptide H^3]
Nonapeptide H^3 3 ng, 30 μg membranes, dilution 1/80, 0'
  Linkage (%) after dissociation time: 3.2%
Nonapeptide H^3 3 ng, dilution 1/80 + 100 μg of nonapeptide, 0'
  Linkage (%) after dissociation time: 3.2%
Nonapeptide H^3 3 ng, dilution 1/80 + 100 μg of nonapeptide, 2'
  Linkage (%) after dissociation time: 1%
Nonapeptide H^3 3 ng, dilution 1/80 + 100 μg of nonapeptide, 10'
  Linkage (%) after dissociation time: 0.5%
Nonapeptide H^3 3 ng, dilution 1/80 + 100 μg of nonapeptide, 15'
  Linkage (%) after dissociation time: 0.1%
Nonapeptide H^3 3 ng, dilution 1/80, 2'
  Linkage (%) after dissociation time: 1.75%
Nonapeptide H^3 3 ng, dilution 1/80, 5'
  Linkage (%) after dissociation time: 1.55%
Nonapeptide H^3 3 ng, dilution 1/80, 10'
  Linkage (%) after dissociation time: 1%
Nonapeptide H^3 3 ng, dilution 1/80, 15'
  Linkage (%) after dissociation time: 0.6%
Nonapeptide H^3 6 ng, dilution 1/80 + 100 μg of nonapeptide, 0'
  Linkage (%) after dissociation time: 5.9%
Nonapeptide H^3 6 ng, dilution 1/80 + 100 μg of nonapeptide, 2'
  Linkage (%) after dissociation time: 3%
Nonapeptide H^3 6 ng, dilution 1/80 + 100 μg of nonapeptide, 10'
  Linkage (%) after dissociation time: 1.5%
Nonapeptide H^3 6 ng, dilution 1/80 + 100 μg of nonapeptide, 15'
  Linkage (%) after dissociation time: 1%
Nonapeptide H^3 6 ng, dilution 1/80, 0'
  Linkage (%) after dissociation time: 5.9%
Nonapeptide H^3 6 ng, dilution 1/80, 2'
  Linkage (%) after dissociation time: 4.8%
Nonapeptide H^3 6 ng, dilution 1/80, 5'
  Linkage (%) after dissociation time: 3%
Nonapeptide H^3 6 ng, dilution 1/80, 10'
  Linkage (%) after dissociation time: 2.4%
Nonapeptide H^3 6 ng, dilution 1/80, 15'
  Linkage (%) after dissociation time: 1.5%
Table VI, Nonapeptide H^3 3 ng, proteic concentration 20 μg
  Linkage (%): 2.1%
Table VI, Nonapeptide H^3 3 ng, proteic concentration 40 μg
  Linkage (%): 3.8%
Table VI, Nonapeptide H^3 3 ng, proteic concentration 60 μg
  Linkage (%): 4.3%
Table VI, Nonapeptide H^3 3 ng, proteic concentration 80 μg
  Linkage (%): 4.6%
Table VI, Nonapeptide H^3 3 ng, proteic concentration 100 μg
  Linkage (%): 5.3%
Table VI, Nonapeptide H^3 30 ng, proteic concentration 20 μg
  Linkage (%): 3.5%
Table VI, Nonapeptide H^3 30 ng, proteic concentration 40 μg
  Linkage (%): 4.3%
Table VI, Nonapeptide H^3 30 ng, proteic concentration 60 μg
  Linkage (%): 5%
Table VI, Nonapeptide H^3 30 ng, proteic concentration 80 μg
  Linkage (%): 5.8%
Table VI, Nonapeptide H^3 30 ng, proteic concentration 100 μg
  Linkage (%): 6.15%
Table VI, Nonapeptide H^3 30 ng, proteic concentration 200 μg
  Linkage (%): 10.4%
Table VI, Nonapeptide H^3 30 ng, proteic concentration 400 μg
  Linkage (%): 13%
Table VI, Nonapeptide H^3 30 ng, proteic concentration 450 μg
  Linkage (%): 13.8%
Table VII, Nonapeptide H^3 3 ng
  Linkage (%): 1.6%
Table VII, Nonapeptide H^3 6 ng
  Linkage (%): 3.5%
Table VII, Nonapeptide H^3 12 ng
  Linkage (%): 5.5%
Table VII, Nonapeptide H^3 60 ng
  Linkage (%): 7.5%
Table VII, Nonapeptide H^3 300 ng
  Linkage (%): 10.5%
Table VIII, Nonapeptide H^3 15 ng, platelet membranes 30 μg, agent 0
  Linkage (%): 4%
